The subject of this assay is U937 cells adhered to HUVEC stimulated by TNFα. The assay can be described thus: Inhibitory effect on cell adhesion (U937 adhesion to TNFα-stimulated HUVEC). The format is cell-based. The settings on record: Homo sapiens, read-out: Inhibitory activity against cell adhesion, Percent inhibition (%); for inhibition at 1 µM: 1 μM test agent; for inhibition at 10 µM: 10 μM test agent. As to the method: (Inhibitory Effect on Cell Adhesion)
This test was conducted by reference to the method of Ross et al. (J. Biol. Chem., 267, 8537-8543 (1992)). More specifically, after human umbilical venous endothelial cells (HUVEC) were cultured on a 48-well plate to confluent growth, TNFα was added thereto. Upon elapsed time of 5 hours after the addition, U937, which is a human monocytic/histocytic cell fluorescence-labeled with PKH2 (product of Dainippon Pharmaceutical Co., Ltd.), was added in a proportion of 1×10^6 cells per well. After the plate was left at rest at room temperature for 1 hour, unadhered U937 was washed out and lysed in 1% Triton X-100 to measure a remaining fluorescence intensity (excitation wavelength: 480 nm; measuring wavelength: 530 nm). HUVEC and U937 were cultured in EGM-2 (product of Sanko Junyaku K.K.) and 10% FCS-containing RPMI1640, respectively. Each test agent was added to HUVEC upon the addition of TNFα and to U937 24 hours prior to the cell adhesion test. The inhibitory activity was calculated out according to the equation [100−(C−B)/(A−B)×100 (%)], wherein A is the number of U937 cells adhered to HUVEC stimulated by TNFα when no test agent was added, B is the number of U937 cells adhered to HUVEC not stimulated by TNFα when no test agent was added, and C is the number of U937 cells adhered to HUVEC stimulated by TNFα when the test agent was added. As control compounds, Test Compound 1 described in Japanese Patent Application Laid-Open No. 9-143075 and dilazep described in Japanese Patent Application Laid-Open No. 11-92382 were simultaneously evaluated.

Where a name gives a salt, the structure may show the parent alone.

The values below come from US6432957B1, “Piperazine derivative” (Kowa Co., Ltd., priority 2001, dated 2002).

For orientation: inhibition means the relative decrease from the control value, in per cent.

On to `COc1cc(-c2cc(CN3C[C@@H](C)N(Cc4ccnc(-c5cc(OC)c(OC)c(OC)c5)c4)[C@@H](C)C3)ccn2)cc(OC)c1OC` [Example 1, cis-N,N′-bis[[2-(3,4,5-trimethoxyphenyl)pyridin-4-yl]methyl]-2,6-dimethylpiperazine tetrahydrochloride], for which the inhibition at 1 µM is 76% and the inhibition at 10 µM was determined as 78%.
The like results for `COc1cc(-c2cc(CN3CCN(Cc4ccnc(-c5cc(OC)c(OC)c(OC)c5)c4)[C@@H](Cc4ccccc4)C3=O)ccn2)cc(OC)c1OC` [Example 9, (3S)-3-benzyl-2-oxo-N,N′-bis[[2-(3,4,5-trimethoxyphenyl)pyridin-4-yl]methyl]piperazine sesqui-hydrochloride] were, in that order, 38% and 86%.
Regarding `COc1cc(-c2cc(CN3CCN(Cc4ccnc(-c5cc(OC)c(OC)c(OC)c5)c4)[C@@H](CC(C)C)C3=O)ccn2)cc(OC)c1OC` [Example 8, (3S)-3-(2-methylpropyl)-2-oxo-N,N′-bis[[2-(3,4,5-trimethoxyphenyl)pyridin-4-yl]methyl]piperazine 2.5 hydrochloride], the inhibition at 1 µM was determined as 63% and the inhibition at 10 µM was 79%.
Consider `COc1cc(-c2cc(CN3CCN(Cc4ccnc(-c5cc(OC)c(OC)c(OC)c5)c4)[C@@H](C)C3=O)ccn2)cc(OC)c1OC` [Example 5, (3S)-3-methyl-2-oxo-N,N′-bis[[2-(3,4,5-trimethoxyphenyl)pyridin-4-yl]methyl]piperazine 2.5 hydrochloride], for which the inhibition at 1 µM came to 51% and the inhibition at 10 µM came out at 85%.
For `COc1cc(-c2cc(CN3C[C@H](C)N(Cc4ccnc(-c5cc(OC)c(OC)c(OC)c5)c4)C[C@H]3C)ccn2)cc(OC)c1OC` [Example 2, trans-N,N′-bis[[2-(3,4,5-trimethoxyphenyl)-pyridin-4-yl]methyl]-2,5-dimethylpiperazine tetrahydrochloride], the inhibition at 1 µM was 42% and the inhibition at 10 µM came to 64%.
For `COc1cc(-c2cc(CN3CCN(Cc4ccnc(-c5cc(OC)c(OC)c(OC)c5)c4)C(=O)C3)ccn2)cc(OC)c1OC` [Example 4, 2-oxo-N,N′-bis[[2-(3,4,5-trimethoxyphenyl)-pyridin-4-yl]methyl]piperazine 2.5 hydrochloride] the same measures were 60% and 79%.
For `COc1cc(-c2cc(CN3CCN(Cc4ccnc(-c5cc(OC)c(OC)c(OC)c5)c4)[C@H](C(C)C)C3=O)ccn2)cc(OC)c1OC` [Example 7, (3R)-3-isopropyl-2-oxo-N,N′-bis[[2-(3,4,5-trimethoxyphenyl)pyridin-4-yl]methyl]piperazine tri-hydrochloride] the same measures were 51% and 70%.
For `COc1cc(C(=O)OCCCN2CCCN(CCCOC(=O)c3cc(OC)c(OC)c(OC)c3)CC2)cc(OC)c1OC` [Dilazep, dilazep, reference compound] the same measures were 12% and 25%.
For the molecule `COc1cc(-c2cc(CN3CCN(Cc4ccnc(-c5cc(OC)c(OC)c(OC)c5)c4)C(CO)C3)ccn2)cc(OC)c1OC` (centres unmarked) [Example 3, N,N′-bis[[2-(3,4,5-trimethoxyphenyl)pyridin-4-yl]methyl]-2-hydroxymethylpiperazine dimaleate], the inhibition at 1 µM was 34% and the inhibition at 10 µM stood at 90%.
In the case of `COc1cc(-c2cc(CN3CCN(Cc4ccnc(-c5cc(OC)c(OC)c(OC)c5)c4)[C@@H](C(C)C)C3=O)ccn2)cc(OC)c1OC` [Example 6, (3S)-3-isopropyl-2-oxo-N,N′-bis[[2-(3,4,5-trimethoxyphenyl)pyridin-4-yl]methyl]piperazine sesqui-hydrochloride], the inhibition at 1 µM turned out to be 63% and the inhibition at 10 µM turned out to be 77%.
